Assay results as given in ChEMBL document CHEMBL5465560, “Selectivity Literature for EUbOPEN Chemogenomic Library” (2024).

Legend:
[1] = molecular target: Serine/threonine-protein kinase PAK 1 (Homo sapiens) (UniProt Q13153); assay: Selectivity interaction (Kinase panel (Z-LYTE Assay)) EUB0001632a PAK1; details: at 10 µM
[2] = molecular target: Protein arginine N-methyltransferase 8 (Homo sapiens, UniProt Q9NR22); assay: Selectivity interaction (Transferase panel (protein, RNA, and DNA methyltransferases. and EP300 (acetyltransferase))) EUB0000270b PRMT8
[3] = molecular target: T1, Serine/threonine-protein kinase ULK3 (Homo sapiens) (UniProt Q6PHR2); details: at 10 µM
T1 sequence (whole entry): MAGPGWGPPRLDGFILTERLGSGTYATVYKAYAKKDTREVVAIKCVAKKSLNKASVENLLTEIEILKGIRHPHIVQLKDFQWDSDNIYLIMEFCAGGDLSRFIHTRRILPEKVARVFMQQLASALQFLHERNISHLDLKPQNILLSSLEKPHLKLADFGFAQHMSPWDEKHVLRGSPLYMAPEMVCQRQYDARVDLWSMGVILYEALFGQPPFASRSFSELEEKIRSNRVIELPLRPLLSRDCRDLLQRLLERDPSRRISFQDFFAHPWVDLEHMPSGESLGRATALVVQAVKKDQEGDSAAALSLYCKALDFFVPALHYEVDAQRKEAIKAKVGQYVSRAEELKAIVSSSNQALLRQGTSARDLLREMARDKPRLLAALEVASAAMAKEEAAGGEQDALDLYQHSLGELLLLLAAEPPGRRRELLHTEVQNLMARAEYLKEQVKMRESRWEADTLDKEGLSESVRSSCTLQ

[4] = molecular target: Cyclin-dependent kinase 5/CDK5 activator 1 (Homo sapiens) (UniProt Q00535+Q15078); assay: Selectivity interaction (Millipore kinase profiler) EUB0000124b CDK5; format: protein-complex assay; details: at 10 µM
[5] = molecular target: Tyrosine-protein kinase JAK1 (Homo sapiens, UniProt P23458)
[6] = molecular target: T2, Serine/threonine-protein kinase Nek1 (Homo sapiens) (UniProt Q96PY6); assay: Selectivity interaction (KinomeScan (DiscoverX)) EUB0000618a NEK1; details: at 10 µM
T2 sequence (whole entry): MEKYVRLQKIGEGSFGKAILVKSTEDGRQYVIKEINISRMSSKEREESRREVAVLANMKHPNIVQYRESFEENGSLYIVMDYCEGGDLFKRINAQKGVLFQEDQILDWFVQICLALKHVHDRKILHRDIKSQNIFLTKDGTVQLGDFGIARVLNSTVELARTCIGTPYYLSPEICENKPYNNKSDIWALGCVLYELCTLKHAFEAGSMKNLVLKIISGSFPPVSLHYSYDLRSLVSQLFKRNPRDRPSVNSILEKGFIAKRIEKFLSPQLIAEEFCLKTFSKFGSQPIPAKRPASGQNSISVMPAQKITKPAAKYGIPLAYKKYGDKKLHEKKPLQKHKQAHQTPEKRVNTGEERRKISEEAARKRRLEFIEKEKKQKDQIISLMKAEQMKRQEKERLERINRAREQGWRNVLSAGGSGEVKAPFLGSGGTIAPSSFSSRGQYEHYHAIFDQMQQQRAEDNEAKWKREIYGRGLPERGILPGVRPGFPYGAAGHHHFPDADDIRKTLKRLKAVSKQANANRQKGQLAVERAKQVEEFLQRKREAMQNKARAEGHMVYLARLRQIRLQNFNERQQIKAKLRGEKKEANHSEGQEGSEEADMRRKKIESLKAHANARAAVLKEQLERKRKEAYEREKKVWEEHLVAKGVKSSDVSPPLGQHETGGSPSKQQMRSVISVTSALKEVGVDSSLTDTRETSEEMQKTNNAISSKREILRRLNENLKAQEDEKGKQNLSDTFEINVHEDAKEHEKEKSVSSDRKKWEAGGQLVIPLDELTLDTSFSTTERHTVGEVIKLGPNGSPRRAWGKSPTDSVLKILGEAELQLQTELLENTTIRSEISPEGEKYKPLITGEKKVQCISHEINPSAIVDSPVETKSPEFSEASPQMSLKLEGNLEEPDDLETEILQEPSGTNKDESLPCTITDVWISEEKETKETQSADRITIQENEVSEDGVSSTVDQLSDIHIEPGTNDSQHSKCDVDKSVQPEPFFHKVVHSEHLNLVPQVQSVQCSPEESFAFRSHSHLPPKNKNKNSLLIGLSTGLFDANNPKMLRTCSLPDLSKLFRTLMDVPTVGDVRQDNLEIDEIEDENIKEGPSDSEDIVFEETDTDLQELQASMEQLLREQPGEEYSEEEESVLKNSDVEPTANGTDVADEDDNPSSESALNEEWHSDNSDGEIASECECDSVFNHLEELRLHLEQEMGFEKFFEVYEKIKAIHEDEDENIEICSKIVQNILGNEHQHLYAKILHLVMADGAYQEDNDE

[7] = molecular target: Calcium/calmodulin-dependent protein kinase type II subunit beta (Homo sapiens) (UniProt Q13554); assay: Selectivity interaction (KinomeScan (DiscoverX)) EUB0000618a CAMK2B; details: at 10 µM
[8] = molecular target: Calcium/calmodulin-dependent protein kinase type II subunit delta (Homo sapiens) (UniProt Q13557); assay: Selectivity interaction (ActivX KiNativ screen (kinase selectivity in THP-1 cell lysates)) EUB0000639a CAMK2D; format: subcellular; details: lysate, at 1 µM
[9] = molecular target: T3, Serine/threonine-protein kinase Nek11 (Homo sapiens) (UniProt Q8NG66); assay: Selectivity interaction (Ambit KINOMEscan and KiNATiv profiling in Jurkat cells) EUB0000090b NEK11; format: cell-based; details: at 1 µM
T3 sequence (whole entry): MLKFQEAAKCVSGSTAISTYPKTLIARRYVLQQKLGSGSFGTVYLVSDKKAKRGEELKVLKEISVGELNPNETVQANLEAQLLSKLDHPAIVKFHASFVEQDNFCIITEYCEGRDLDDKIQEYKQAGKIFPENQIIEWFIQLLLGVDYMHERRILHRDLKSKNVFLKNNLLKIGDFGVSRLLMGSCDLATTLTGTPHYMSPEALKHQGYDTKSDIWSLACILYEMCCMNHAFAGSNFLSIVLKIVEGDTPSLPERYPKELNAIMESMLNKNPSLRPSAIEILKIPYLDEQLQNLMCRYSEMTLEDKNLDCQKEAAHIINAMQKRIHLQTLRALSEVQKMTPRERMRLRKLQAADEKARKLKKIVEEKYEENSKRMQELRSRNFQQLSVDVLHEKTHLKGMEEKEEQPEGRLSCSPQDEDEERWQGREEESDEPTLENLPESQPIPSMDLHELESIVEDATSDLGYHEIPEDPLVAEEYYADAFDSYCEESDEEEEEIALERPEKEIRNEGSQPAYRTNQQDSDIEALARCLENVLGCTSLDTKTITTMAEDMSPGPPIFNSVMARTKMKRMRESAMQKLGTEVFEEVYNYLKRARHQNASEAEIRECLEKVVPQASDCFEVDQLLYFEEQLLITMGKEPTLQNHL

[10] = molecular target: Myosin light chain kinase, smooth muscle (Homo sapiens, UniProt Q15746); assay: Selectivity interaction (Ambit KINOMEscan and KiNATiv profiling in Jurkat cells) EUB0000090b MYLK; format: cell-based; details: at 1 µM

Sequence of Protein arginine N-methyltransferase 8 (Q9NR22 2-394 limits assumed): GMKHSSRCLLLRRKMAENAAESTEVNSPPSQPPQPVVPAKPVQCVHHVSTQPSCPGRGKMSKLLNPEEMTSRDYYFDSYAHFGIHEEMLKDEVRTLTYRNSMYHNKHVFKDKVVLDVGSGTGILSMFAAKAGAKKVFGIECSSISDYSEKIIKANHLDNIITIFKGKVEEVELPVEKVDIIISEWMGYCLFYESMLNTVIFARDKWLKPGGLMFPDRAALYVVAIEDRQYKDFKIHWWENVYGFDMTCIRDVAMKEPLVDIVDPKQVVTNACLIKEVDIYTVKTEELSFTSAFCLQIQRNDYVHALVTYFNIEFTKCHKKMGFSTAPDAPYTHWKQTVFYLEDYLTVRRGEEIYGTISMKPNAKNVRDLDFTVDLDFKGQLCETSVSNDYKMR
Sequence of Serine/threonine-protein kinase PAK 1 (Homo sapiens) (Q13153 whole entry): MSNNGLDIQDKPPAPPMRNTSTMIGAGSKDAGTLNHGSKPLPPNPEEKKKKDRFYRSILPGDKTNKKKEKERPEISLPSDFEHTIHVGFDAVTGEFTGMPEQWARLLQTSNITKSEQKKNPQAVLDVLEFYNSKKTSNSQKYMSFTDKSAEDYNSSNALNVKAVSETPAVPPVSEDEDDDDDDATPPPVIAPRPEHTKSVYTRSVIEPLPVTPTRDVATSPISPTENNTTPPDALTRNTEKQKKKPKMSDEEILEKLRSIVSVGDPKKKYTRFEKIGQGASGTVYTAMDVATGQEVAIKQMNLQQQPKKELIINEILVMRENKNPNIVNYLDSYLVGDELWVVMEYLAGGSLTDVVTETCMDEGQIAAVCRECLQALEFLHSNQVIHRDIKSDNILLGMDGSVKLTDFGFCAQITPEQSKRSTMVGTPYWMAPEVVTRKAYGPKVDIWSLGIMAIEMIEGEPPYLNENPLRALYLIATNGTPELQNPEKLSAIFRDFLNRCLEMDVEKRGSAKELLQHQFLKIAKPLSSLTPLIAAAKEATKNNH
Sequence of Calcium/calmodulin-dependent protein kinase type II subunit delta (Homo sapiens) (Q13557 whole entry): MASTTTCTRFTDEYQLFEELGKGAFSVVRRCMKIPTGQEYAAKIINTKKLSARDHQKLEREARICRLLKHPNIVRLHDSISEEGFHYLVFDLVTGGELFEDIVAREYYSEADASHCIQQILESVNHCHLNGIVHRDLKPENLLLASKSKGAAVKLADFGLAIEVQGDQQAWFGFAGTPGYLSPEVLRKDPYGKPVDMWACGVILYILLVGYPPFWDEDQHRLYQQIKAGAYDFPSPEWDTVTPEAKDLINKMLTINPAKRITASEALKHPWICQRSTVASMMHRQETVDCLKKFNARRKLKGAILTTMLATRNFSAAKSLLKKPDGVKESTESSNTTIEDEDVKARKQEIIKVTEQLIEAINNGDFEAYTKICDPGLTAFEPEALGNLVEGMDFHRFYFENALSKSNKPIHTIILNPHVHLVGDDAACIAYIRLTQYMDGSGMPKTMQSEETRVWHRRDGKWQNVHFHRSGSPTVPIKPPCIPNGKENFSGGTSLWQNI
Sequence of Calcium/calmodulin-dependent protein kinase type II subunit beta (Homo sapiens) (Q13554 whole entry): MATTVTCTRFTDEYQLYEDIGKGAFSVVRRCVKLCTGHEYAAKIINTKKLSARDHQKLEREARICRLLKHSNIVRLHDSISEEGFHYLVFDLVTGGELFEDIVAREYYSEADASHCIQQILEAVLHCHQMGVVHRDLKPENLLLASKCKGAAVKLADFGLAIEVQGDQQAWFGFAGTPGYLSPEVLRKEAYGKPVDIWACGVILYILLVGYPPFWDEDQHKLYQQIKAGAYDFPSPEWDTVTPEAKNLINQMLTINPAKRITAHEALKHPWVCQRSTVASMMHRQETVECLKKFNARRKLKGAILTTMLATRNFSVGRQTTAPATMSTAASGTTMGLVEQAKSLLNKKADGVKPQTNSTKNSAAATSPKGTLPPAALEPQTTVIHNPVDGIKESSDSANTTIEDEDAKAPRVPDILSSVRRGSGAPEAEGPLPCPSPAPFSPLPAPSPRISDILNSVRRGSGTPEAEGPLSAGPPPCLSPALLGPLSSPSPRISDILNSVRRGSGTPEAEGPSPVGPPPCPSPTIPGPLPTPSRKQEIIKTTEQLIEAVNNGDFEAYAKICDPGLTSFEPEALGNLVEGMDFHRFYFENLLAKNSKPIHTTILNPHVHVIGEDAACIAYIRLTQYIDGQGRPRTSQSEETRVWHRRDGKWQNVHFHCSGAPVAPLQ
Sequence of Tyrosine-protein kinase JAK1 (P23458 whole entry): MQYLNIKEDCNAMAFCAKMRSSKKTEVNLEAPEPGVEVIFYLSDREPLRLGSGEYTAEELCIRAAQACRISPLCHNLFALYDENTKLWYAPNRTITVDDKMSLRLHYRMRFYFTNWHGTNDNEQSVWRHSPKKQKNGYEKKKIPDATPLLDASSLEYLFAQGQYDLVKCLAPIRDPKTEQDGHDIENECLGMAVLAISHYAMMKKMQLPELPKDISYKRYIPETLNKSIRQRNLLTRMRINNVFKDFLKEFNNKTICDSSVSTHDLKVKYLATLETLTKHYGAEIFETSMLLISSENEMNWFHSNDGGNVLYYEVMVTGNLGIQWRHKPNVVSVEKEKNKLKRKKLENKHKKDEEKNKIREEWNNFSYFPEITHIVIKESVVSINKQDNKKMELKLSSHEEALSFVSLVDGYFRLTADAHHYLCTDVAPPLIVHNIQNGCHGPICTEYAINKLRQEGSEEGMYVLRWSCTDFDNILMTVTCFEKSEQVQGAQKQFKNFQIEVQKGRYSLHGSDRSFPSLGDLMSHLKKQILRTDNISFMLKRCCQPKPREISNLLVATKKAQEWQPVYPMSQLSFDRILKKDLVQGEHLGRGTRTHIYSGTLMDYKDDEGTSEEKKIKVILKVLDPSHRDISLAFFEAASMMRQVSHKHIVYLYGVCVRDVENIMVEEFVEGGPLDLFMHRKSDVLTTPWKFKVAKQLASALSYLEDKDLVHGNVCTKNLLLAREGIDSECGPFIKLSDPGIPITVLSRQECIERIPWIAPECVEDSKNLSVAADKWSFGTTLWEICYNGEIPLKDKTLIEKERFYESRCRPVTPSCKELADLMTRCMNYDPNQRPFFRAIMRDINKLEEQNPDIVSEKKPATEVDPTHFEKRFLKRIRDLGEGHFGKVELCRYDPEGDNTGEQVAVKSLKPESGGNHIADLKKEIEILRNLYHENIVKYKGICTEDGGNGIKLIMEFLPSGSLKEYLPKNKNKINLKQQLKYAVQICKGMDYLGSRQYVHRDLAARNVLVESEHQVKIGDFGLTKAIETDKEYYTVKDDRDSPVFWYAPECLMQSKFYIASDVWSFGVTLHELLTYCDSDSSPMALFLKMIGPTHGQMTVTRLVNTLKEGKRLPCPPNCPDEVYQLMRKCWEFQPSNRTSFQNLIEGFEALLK
Sequence of Cyclin-dependent kinase 5/CDK5 activator 1 (Homo sapiens) (Q00535 whole entry): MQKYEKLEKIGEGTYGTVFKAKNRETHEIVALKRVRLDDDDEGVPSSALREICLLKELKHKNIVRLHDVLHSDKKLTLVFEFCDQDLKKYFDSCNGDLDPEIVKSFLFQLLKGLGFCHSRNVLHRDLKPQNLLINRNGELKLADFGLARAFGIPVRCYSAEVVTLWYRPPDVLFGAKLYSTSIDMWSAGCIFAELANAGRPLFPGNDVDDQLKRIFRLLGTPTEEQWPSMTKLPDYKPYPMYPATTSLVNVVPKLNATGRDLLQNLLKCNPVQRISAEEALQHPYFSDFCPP
Sequence of Cyclin-dependent kinase 5/CDK5 activator 1 (Homo sapiens) (Q15078 99-307 partner limits assumed): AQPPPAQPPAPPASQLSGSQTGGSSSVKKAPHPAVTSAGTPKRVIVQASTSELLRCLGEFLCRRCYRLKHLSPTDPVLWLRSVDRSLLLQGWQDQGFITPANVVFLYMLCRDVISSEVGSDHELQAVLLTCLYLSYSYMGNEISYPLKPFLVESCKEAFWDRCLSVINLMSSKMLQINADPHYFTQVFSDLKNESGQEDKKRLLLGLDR

Cn1cc(-n2cnc3c(NCc4nc5cc(Cl)c(Cl)cc5[nH]4)nc(N4CCOCC4)nc32)cn1
% of control [1]: -0.498%

Cc1cc(CN)cc(C)c1-c1ncn(C)c1-c1cncn1C
% activity ([2]; at 1 µM): > 90%
% activity ([2]; at 10 µM): > 80%

Cc1cc([C@@H](C)Nc2ccccc2C(=O)O)c2nc(N3CCOCC3)cc(=O)n2c1 [AZD-6482]
% of control [3]: 98%

CC(=O)Nc1cccc(-n2c(=O)n(C3CC3)c(=O)c3c(Nc4ccc(I)cc4F)n(C)c(=O)c(C)c32)c1
% of control [4]: 102%

CCc1cccc(CC)c1NC(=O)c1nn(C)c2c1CCc1cnc(Nc3ccc(C(=O)NC4CCN(C)CC4)cc3OC(F)(F)F)nc1-2
IC50 [5]: > 10 µM

O[C@H]1CC[C@H](Nc2ncc3nc(Nc4c(F)cc(F)cc4F)n([C@H]4CCOC4)c3n2)CC1
% of control [6]: 97%
% of control [7]: 100%

CC[C@@H]1[C@H](F)C(=O)N[C@@H]1COc1nccc2cc(C(N)=O)c(OC)cc12 [ZIMLOVISERTIB]
% of inhibition [8]: 25.1%

CN(C)C/C=C/C(=O)Nc1ccc(C(=O)N2CCCC(Nc3ncc(Cl)c(-c4c[nH]c5ccccc45)n3)C2)cc1 (stereo unspecified)
% of control [9]: 90%
% of control [10]: 100%
